Reference: ChEMBL document CHEMBL1201862, “PubChem BioAssay data set” (2004)
Calls of active or inactive are those of the source.

Key:
fMet-Leu-Phe receptor = fMet-Leu-Phe receptor (Homo sapiens, UniProt P21462); experiment: formyl peptide receptor binders – dose response (AID 519); assay type: functional
[1] = HGIII-sPLA2 enzyme inhibition potency – biochemical, QFRET, IC50, dose response (AID 743457);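 also: green fluorescence rise as the enzyme cleaves BODIPY PC-A2 in liposomes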
[2] = target: T1, Low molecular weight phosphotyrosine protein phosphatase (Homo sapiens, UniProt P24666); assay type: functional; conditions: read-out: IC50_Mean
T1 sequence (P24666 whole entry): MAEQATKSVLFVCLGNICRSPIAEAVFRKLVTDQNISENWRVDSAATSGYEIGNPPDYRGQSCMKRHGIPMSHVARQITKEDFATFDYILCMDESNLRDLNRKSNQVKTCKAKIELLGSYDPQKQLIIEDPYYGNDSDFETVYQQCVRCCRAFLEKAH

[3] = target: T1, Low molecular weight phosphotyrosine protein phosphatase; assay type: functional; conditions: read-out: IC50_Mean; remark: listed apart in the source
[4] = blockers of HIV-1 envelope-mediated cell-cell fusion – cherry-pick, dose response (AID 652057); assay type: functional, cell-based
[5] = viability loss in CEM21 cells – cell-based, CellTiter-Glo luminescence, cherry-picked, cytotoxicity control for viral fusion inhibitor project, dose response (AID 652042); assay type: functional;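 also: potency for signal decrease meaning cytotoxicity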
[6] = blockers of HIV-1 ZM109 envelope-driven cell-cell fusion – HeLa effector, CEM target cells, luciferase, cherry-pick, dose response (AID 652058); assay type: functional, cell-based;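 also: luciferase signal from HIV-1 Env mediated cell-cell fusion of effector and target cells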
[7] = off-target signal loss in HeLa-CEM21 co-culture – HeLa F-luc CTL cells, cherry-picked, counter-screen for HIV-1 Env fusion inhibitor project, dose response (AID 652040); assay type: functional, cell-based;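 also: potency for signal decrease marking cytotoxic or nonspecific inhibition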
[8] = HIV-1 AD8 envelope cell-cell fusion blockers – cherry-pick, dose response (AID 652062); assay type: functional, cell-based;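 also: luciferase signal from cell-cell fusion driven by HIV-1 clade B AD8 Env; potency is for inhibitors of fusion seen as a drop in luminescence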
cells [9] = assay type: functional, cell-based
cells [10] = assay type: functional, cell-based; remark: listed apart in the source
[11] = target: T2, Oxysterols receptor LXR-beta (Homo sapiens, UniProt P55055); assay type: functional, cell-based;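 also: agonist activity at LXR measured by a cell-based luminescence readout across a dose range, run as a counterscreen for daf-12 agonists; HEK293 cells with Gal4-LXR fusion and GAL4-driven luciferase reporter; potency for activation of Gal4-LXR reporter so compounds are agonists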
T2 sequence (P55055 whole entry): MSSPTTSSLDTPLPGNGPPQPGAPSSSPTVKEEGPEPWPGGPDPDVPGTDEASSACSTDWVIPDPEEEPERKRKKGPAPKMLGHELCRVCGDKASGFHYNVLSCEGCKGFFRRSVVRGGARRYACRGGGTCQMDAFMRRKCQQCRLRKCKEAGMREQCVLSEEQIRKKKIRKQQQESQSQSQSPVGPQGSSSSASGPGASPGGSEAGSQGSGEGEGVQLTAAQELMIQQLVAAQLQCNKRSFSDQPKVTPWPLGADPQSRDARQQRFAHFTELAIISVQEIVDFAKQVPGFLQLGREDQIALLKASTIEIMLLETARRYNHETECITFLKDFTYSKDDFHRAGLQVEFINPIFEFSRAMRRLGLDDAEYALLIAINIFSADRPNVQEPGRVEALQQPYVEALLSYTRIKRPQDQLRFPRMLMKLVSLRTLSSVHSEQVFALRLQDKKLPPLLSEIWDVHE

[12] = viability of uninfected HEp-2 cells – cell-based, HTS, cytotoxicity control for RSV inhibitor project, dose response (AID 2410); assay type: functional; conditions: human respiratory syncytial virus
[13] = target: T3, Probable nicotinate-nucleotide adenylyltransferase (Staphylococcus aureus (strain N315), UniProt P65502); assay type: functional, Staphylococcus aureus subsp. aureus N315;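 as to IC50 Mean: confirmatory dose-response retesting of NadD inhibitor hits first found in an ultra-high-throughput screen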
[14] = target: T3, Probable nicotinate-nucleotide adenylyltransferase; assay type: functional, Staphylococcus aureus subsp. aureus N315; conditions: read-out: IC50_Mean
Fatty acid synthase [15] = target: T4, Fatty acid synthase (Homo sapiens, UniProt P49327); experiment: inhibition of human FAS-TE enzyme activity – biochemical, endpoint fluorescence intensity, uHTS hits, dose response (AID 624327); assay type: functional;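 also: fluorescence from hydrolysis of an O-methyl fluorescein acyl ester substrate by the enzyme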
Fatty acid synthase [16] = target: T4, Fatty acid synthase; experiment: inhibition of human FAS-TE enzyme activity – biochemical, kinetic fluorescence intensity, dose response (AID 624326); assay type: functional;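 also: rate of fluorescence rise from hydrolysis of a fluorogenic O-methyl fluorescein ester substrate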
[17] = microbe, parasite or virus in culture; assay type: functional; conditions: Mycobacterium tuberculosis
[18] = target: T5, Microphthalmia-associated transcription factor (Homo sapiens, UniProt O75030); experiment: reducers of TRPM1 reporter luminescence, concentration series – cell-based, SK-MEL-5, cherry-picked, set 3, MITF inhibitor project, dose response (AID 493073); assay type: functional;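 also: SK-MEL-5 melanoma cells with luciferase driven by the MITF target TRPM1 promoter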
T5 sequence (O75030 whole entry): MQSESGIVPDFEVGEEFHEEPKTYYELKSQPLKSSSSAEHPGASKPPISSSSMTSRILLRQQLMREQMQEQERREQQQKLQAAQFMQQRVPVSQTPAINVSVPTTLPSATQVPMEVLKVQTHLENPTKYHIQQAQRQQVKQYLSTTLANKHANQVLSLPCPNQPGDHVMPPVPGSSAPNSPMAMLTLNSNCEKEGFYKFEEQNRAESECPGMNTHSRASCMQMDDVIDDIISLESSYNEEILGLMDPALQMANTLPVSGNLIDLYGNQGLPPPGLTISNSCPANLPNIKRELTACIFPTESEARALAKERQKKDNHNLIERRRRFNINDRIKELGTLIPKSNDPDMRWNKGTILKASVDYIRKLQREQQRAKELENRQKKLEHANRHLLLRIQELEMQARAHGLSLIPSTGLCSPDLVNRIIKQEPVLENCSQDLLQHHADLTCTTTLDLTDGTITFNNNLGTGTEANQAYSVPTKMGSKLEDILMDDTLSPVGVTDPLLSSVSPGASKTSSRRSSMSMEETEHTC

[19] = A549 cell cytotoxicity, dose response, cytotoxicity control, plate reader, cherry-pick, antagonist series (AID 743412); assay type: functional, cell-based
[20] = toxicity toward HepG2 liver cells – cell-based, plate reader, cherry-pick, antagonist series, cytotoxicity control, dose response (AID 743416); assay type: functional
[21] = blockers of bursicon-stimulated LGR2 cAMP reporter – cell-based, HEK293, CRE-luciferase reporter, cherry pick, set 2, dose response (AID 743343); assay type: functional;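 also: transfected cells were stimulated with diluted bursicon conditioned medium after compound addition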
[22] = blockade of melanocortin 4 receptor signaling – cell-based, plate reader, cherry pick, counter-screen for LGR2 antagonist project, dose response (AID 743444); assay type: functional;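 also: transfected HEK 293 cells stimulated with alpha-MSH peptide; potency of inhibitors of the alpha-MSH evoked signal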
[23] = viability loss in HEK293 cells – cell-based, plate reader, cherry-picked samples, cytotoxicity control, dose response (AID 743446); assay type: functional
[24] = target: Tyrosine-protein phosphatase non-receptor type 11 (Homo sapiens, UniProt Q06124); experiment: PTPN11 enzyme inhibitors – biochemical, selectivity assay for STEP inhibitor project, dose response (AID 602367); assay type: functional; conditions: read-out: IC50_Mean
[25] = target: Tyrosine-protein phosphatase non-receptor type 5 (Homo sapiens, UniProt P54829); experiment: PTPN5 enzyme inhibition – biochemical, fluorescence intensity, uHTS hits, confirmation (AID 602372); assay type: functional; conditions: read-out: IC50_Mean
[26] = target: Dual specificity protein phosphatase 3 (Homo sapiens, UniProt P51452); experiment: VHR phosphatase inhibition, dose response, selectivity assay for STEP inhibitor project, biochemical (AID 602374); assay type: functional; conditions: read-out: IC50_Mean
Protein skinhead-1 = target: T6, Protein skinhead-1 (Caenorhabditis elegans, UniProt P34707); assay type: functional
T6 sequence (P34707 whole entry): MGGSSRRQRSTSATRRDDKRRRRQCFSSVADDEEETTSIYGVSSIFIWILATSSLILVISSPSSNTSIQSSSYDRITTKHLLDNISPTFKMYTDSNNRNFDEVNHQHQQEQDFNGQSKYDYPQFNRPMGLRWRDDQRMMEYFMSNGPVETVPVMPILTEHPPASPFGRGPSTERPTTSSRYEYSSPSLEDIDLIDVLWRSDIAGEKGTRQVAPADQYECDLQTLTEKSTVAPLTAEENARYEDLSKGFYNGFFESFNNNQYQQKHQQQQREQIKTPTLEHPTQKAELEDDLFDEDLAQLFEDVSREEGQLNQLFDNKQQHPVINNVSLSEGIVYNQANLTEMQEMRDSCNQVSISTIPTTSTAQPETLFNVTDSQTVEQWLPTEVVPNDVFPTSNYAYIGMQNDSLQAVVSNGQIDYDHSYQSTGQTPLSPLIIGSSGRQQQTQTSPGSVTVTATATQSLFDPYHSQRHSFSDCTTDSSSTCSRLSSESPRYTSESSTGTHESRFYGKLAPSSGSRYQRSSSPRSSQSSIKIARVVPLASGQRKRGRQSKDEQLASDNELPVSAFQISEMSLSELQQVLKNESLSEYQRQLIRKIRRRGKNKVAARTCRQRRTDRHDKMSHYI

cells [27] = assay type: functional, cell-based; remark: listed apart in the source
[28] = target: T7, Nuclear receptor subfamily 0 group B member 1 (Homo sapiens, UniProt P51843); assay type: functional, cell-based;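 also: HEK293T cells transfected with SF-1 and DAX-1 plus StAR promoter luciferase reporter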
T7 sequence (P51843 whole entry): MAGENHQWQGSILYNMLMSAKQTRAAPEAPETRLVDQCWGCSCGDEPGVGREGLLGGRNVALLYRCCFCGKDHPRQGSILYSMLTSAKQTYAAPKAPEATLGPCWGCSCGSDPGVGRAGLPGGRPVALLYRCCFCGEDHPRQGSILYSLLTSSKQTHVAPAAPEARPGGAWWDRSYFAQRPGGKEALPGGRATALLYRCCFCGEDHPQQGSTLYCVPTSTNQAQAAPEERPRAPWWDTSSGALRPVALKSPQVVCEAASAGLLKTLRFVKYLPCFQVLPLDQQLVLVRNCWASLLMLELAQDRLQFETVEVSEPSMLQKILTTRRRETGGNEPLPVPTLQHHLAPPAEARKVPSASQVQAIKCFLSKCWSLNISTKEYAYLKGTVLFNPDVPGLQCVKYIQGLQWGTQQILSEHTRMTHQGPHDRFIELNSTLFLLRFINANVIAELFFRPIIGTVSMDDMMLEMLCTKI

Genome polyprotein = Genome polyprotein (dengue virus type 2, UniProt P29990); experiment: flavivirus cap methylation enzyme inhibition – biochemical, confirmation dose response, primary screen (AID 588689); assay type: functional
[29] = target: DNA (cytosine-5)-methyltransferase 1 (Homo sapiens, UniProt P26358); experiment: inhibition of DNA methylation by DNMT1 – biochemical, fluorescent molecular beacon, confirmation (AID 602386); assay type: functional
[30] = viability loss in THP-1 monocytes – THP-1 cells, cytotoxicity control for Vif-APOBEC3G degradation inhibitor project, dose response (AID 1117359); assay type: functional; conditions: THP-1
[31] = activation of miR-122 Renilla sensor silencing – cell-based, Huh7 psiCHECK-miR122, Renilla luciferase, cherry-picked, dose response (AID 651956); assay type: functional;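 also: huh7 hepatoma cells stably carrying a psiCHECK-2 miR-122 sensor plasmid; renilla luciferase signal reporting endogenous miR-122 activity after 48 h compound exposure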
[32] = target: Protein disulfide-isomerase (Homo sapiens, UniProt P07237); experiment: inhibition of PDI-mediated insulin reduction – biochemical, turbidity, dry powder samples, set 2, confirmation (AID 652146)

Sequence of fMet-Leu-Phe receptor (P21462 whole entry): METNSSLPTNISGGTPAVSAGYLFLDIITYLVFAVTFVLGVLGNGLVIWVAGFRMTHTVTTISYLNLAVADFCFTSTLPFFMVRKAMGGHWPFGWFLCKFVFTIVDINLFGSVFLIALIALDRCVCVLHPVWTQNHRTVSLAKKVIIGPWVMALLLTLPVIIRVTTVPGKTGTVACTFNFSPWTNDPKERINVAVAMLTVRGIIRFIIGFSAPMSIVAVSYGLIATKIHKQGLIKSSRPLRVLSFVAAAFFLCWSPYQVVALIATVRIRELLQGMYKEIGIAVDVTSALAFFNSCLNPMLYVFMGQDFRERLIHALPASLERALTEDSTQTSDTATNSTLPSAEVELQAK
T3 sequence (P65502 whole entry): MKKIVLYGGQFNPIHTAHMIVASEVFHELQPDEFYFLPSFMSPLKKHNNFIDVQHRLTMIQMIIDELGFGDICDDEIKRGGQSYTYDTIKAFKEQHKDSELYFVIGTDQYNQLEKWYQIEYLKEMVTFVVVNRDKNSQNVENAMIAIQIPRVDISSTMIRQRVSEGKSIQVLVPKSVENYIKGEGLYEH
T4 sequence (P49327 whole entry): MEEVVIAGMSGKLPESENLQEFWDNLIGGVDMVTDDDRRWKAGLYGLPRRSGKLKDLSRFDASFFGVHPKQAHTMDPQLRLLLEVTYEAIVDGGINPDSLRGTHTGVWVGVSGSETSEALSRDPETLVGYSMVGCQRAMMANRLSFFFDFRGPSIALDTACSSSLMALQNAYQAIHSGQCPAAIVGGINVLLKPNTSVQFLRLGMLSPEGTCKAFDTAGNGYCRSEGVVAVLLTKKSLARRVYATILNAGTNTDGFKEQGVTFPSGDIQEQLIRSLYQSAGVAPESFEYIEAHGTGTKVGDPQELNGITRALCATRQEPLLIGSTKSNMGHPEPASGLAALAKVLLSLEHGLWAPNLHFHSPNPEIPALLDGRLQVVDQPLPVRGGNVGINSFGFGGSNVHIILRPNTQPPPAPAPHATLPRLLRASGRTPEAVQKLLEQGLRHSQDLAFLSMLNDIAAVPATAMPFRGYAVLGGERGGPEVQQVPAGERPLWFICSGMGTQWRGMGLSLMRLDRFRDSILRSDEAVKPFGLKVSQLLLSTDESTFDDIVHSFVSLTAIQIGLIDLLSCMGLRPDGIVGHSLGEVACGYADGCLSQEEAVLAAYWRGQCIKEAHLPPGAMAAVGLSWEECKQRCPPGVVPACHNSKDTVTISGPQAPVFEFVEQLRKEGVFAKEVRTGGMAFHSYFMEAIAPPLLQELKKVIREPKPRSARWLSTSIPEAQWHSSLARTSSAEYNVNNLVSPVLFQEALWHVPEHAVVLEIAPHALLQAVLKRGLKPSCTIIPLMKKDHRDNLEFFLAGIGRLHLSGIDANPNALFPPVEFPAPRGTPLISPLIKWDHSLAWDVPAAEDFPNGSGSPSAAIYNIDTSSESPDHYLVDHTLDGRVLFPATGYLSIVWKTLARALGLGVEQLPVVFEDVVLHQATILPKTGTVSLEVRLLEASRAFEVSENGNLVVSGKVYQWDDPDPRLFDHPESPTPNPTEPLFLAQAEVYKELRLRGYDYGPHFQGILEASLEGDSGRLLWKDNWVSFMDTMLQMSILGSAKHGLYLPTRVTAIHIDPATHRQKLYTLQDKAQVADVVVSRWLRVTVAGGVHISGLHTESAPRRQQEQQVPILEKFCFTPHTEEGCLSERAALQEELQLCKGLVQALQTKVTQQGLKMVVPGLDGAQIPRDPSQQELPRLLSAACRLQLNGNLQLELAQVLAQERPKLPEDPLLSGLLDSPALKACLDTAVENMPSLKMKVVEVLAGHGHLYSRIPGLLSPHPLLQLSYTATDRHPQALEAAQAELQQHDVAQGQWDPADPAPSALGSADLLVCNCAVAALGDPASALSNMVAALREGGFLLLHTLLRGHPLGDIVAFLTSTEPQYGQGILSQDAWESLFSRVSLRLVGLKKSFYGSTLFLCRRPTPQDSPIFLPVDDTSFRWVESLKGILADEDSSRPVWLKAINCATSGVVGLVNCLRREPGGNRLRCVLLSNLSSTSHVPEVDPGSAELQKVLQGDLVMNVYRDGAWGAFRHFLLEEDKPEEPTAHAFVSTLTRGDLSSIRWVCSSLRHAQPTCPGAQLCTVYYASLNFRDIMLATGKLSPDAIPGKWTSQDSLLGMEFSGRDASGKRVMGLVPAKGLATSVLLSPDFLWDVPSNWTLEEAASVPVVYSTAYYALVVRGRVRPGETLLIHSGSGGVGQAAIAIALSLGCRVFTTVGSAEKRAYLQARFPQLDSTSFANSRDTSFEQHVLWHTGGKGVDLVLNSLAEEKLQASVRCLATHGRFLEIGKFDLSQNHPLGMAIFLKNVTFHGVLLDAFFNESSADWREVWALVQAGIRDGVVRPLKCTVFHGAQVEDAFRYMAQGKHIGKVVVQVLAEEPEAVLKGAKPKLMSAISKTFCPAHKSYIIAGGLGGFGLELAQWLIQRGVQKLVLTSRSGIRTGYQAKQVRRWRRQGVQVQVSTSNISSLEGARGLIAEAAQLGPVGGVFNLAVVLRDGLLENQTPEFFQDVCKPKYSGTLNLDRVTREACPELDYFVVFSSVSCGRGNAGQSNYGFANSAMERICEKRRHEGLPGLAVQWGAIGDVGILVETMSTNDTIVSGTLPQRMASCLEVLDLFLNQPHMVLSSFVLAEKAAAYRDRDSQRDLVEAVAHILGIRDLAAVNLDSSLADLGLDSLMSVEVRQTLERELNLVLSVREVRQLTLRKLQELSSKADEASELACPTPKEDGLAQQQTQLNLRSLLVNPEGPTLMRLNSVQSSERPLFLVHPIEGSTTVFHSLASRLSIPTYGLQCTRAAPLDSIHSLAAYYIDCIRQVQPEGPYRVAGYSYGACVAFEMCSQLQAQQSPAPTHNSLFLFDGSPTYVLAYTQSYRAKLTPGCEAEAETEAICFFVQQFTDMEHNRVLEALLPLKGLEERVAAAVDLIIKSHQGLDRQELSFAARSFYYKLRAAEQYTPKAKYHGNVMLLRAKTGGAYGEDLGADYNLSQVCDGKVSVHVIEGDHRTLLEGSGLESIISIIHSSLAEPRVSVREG
Sequence of Tyrosine-protein phosphatase non-receptor type 11 (Q06124 whole entry): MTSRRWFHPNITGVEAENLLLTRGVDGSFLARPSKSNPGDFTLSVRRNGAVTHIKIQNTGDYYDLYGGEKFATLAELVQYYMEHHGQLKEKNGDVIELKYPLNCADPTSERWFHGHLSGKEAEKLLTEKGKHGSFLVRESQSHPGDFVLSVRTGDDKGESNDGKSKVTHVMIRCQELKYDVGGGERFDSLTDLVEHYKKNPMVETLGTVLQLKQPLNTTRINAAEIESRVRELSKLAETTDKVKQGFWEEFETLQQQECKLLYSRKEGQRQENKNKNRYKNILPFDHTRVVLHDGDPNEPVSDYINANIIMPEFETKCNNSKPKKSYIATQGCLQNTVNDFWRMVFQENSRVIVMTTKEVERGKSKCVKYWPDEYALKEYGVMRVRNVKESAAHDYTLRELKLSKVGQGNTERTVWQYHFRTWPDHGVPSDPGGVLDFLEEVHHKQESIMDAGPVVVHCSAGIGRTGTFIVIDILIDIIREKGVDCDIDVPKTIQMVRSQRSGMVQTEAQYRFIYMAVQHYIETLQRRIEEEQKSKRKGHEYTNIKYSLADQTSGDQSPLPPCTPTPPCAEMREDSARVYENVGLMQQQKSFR
Sequence of Genome polyprotein (P29990 2492-3391 limits assumed): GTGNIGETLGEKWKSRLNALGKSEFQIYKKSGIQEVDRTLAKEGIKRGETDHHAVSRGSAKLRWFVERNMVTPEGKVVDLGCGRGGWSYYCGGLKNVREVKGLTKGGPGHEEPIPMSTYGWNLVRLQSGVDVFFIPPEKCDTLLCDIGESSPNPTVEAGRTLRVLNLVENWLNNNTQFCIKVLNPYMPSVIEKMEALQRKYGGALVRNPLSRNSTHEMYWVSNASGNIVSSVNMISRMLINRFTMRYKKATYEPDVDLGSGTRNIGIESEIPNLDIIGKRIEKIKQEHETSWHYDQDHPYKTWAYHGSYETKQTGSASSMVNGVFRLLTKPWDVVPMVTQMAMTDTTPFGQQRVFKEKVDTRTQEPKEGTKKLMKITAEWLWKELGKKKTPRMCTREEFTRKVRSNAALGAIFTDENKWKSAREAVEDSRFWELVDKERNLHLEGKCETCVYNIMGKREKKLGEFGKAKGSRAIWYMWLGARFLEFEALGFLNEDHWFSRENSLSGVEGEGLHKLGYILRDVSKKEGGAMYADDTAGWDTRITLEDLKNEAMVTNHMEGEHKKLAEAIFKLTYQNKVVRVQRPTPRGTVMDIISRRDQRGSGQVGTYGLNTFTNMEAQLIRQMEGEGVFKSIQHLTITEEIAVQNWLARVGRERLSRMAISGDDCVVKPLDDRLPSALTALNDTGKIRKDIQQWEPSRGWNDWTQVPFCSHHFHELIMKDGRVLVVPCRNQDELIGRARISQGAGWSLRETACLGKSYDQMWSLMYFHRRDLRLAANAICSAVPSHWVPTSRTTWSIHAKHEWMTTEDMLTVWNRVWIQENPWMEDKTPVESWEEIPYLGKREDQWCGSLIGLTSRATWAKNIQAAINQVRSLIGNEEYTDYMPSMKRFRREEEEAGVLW
Sequence of Dual specificity protein phosphatase 3 (P51452 whole entry): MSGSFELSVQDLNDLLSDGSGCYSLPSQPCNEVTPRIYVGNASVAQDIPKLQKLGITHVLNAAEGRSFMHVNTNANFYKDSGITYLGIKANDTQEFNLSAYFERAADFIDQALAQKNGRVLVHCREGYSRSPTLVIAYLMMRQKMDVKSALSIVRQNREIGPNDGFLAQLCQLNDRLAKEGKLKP

In the case of Cc1ccc(Nc2nc(C3CC3)cs2)cc1, the Ki (fMet-Leu-Phe receptor) was 43.1 µM (inactive).

With Cc1c(C)c2cc(Cl)c(O)c(CN3CCCCC3)c2oc1=O the Ki (fMet-Leu-Phe receptor) was > 66.7 µM (inactive).

For O=C(NN=C(S)NCc1ccccc1)c1ccccc1OC(F)F, the IC50 [1] was > 122 µM (inactive).

For O=C1NC(=O)N(CCc2ccc(F)cc2)C(=O)/C1=C\NCc1ccc2c(c1)OCO2, the IC50 [2] was > 80 µM (inactive) and the IC50 [3] was 3.2 µM (active).

With CCOC(=O)Cn1nnnc1CN(CCc1ccccc1)Cc1cc2cc(CC)ccc2nc1O the AC50 [4] was 2.97 µM (active), the AC50 [5] was 54.2 µM (active) and the AC50 [6] was 1.17 µM (active). The AC50 [7] was 6.05 µM (active) and the AC50 [8] was 29.3 µM (active).

With O=C(NCC1CCCO1)c1cc(-c2ccccc2F)no1 (stereo unspecified) the EC50 (cells [9]) was 190 µM (active), the EC50 (cells [10]) was 43.8 µM (active) and the EC50 [11] was > 67.5 µM (inactive).

With O=[N+]([O-])c1ccc(Cl)c(S(=O)(=O)Nc2cccc(-c3ccc(N4CCCC4)nn3)c2)c1 the CC50 [12] was 14.7 µM (active), the IC50 [13] was 6.57 µM (active) and the IC50 [14] was 23.5 µM (active). For the same compound, the IC50 (Fatty acid synthase [15]) was 8.75 µM (active) and the IC50 (Fatty acid synthase [16]) was 7.65 µM (active).

With CC1(C)CC(NC(=O)c2ccc(Cl)c(S(=O)(=O)N(Cc3ccccc3)c3ccccc3)c2)CC(C)(C)N1 the CC50 [17] was 12.7 µM (active), the AC50 [18] was 10.3 µM (active) and the AC50 [19] was 7.96 µM (active). The AC50 [20] was 8.14 µM (active), the AC50 [21] was 19.4 µM (active) and the AC50 [22] was 29.4 µM (active). For the same compound, the AC50 [23] was 15.7 µM (active).

In the case of c1ccc([C@H]2CN3C(=N2)Sc2ccccc23)cc1, the EC50 [11] was > 67.1 µM (inactive).

In the case of COc1cccc(-c2cc(C(=O)Nc3nc4ccccc4s3)c3ccccc3n2)c1, the IC50 [24] was 8.43 µM (active), the IC50 [25] was 23.2 µM (inactive) and the IC50 [26] was 1.62 µM (active). The IC50 (Protein skinhead-1) was > 100 µM (inactive).

With COC(=O)C1CCC(=O)N1C(c1ccc(OC)cc1)c1cc(OC)c(OC)c(OC)c1 (stereo unspecified) the IC50 (cells [27]) was > 67.5 µM (inactive) and the IC50 [28] was > 67.5 µM (inactive).

For O=C1C=C(N2CC2)c2ccccc2C1=O, the IC50 (Genome polyprotein) was 29.7 µM (active), the IC50 [29] was 1.87 µM (active) and the IC50 (Protein skinhead-1) was > 100 µM (inactive). The CC50 [30] was 32.7 µM (active).

With CCNC(=O)C[C@@H]1CC[C@@H]2[C@@H](COc3ccc(NC(=O)C4CCCCC4)cc3C(=O)N2C)O1 the AC50 [31] was 33.4 µM (active).

For C[C@H](CO)N1C[C@H](C)[C@H](CN(C)S(=O)(=O)c2ccccc2)Oc2ccc(NC(=O)Nc3ccc4c(c3)OCO4)cc2CC1=O, the AC50 [4] was < 0.26 µM (active), the AC50 [5] was 58.4 µM (active) and the AC50 [8] was 1.15 µM (active).

In the case of CCOC(=O)C1(CCOC)CCCN(Cc2ccc(Cl)cc2)C1 (stereo unspecified), the AC50 [32] was > 30 µM (inactive).
